test system: mixture of Pseudomonas aeruginosa, Klebsiella pneumoniae, Staphylococcus aureus, and Bacillus subtilis; test: Growth inhibition assay (microtiter plate-based synergy assay); conditions: active used alone; dilute mineral salts medium pH 7.5; 37° C., 24 hr; OD580
Excerpt: Growth Inhibition Assay. […] Regardless of the mechanism of action, the impact of a biocide (or combination of biocides) can be measured over time on the basis of an increase in the size of the community.
The assay measures the efficacy of one or more biocides at preventing growth of a consortium of bacteria in a dilute mineral salts medium. The medium contains (in mg/l) the following components: FeCl3.6H2O (1); CaCl2.2H2O (10); MgSO4.7H2O (22.5); (NH4)2SO4 (40); KH2PO4 (10); K2HPO4 (25.5); Yeast Extract (10); and glucose (100). After all components are added to deionized water, the pH of the medium is adjusted to 7.5. Following filter sterilization, aliquots are dispensed in 100 μl quantities to sterile microtiter plate wells. Dilutions of 2,2-dibromomalonamide (“DBMAL”) and/or “Biocide B” are then added to the microtiter plate. After preparing the combinations of actives as illustrated below, each well is inoculated with 100 μl of a cell suspension containing ca. 1×10^6 cells per milliliter of a mixture of Pseudomonas aeruginosa, Klebsiella pneumoniae, Staphylococcus aureus, and Bacillus subtilis. The final total volume of medium in each well is 300 μl. Once prepared as described herein, the concentration of each active ranges from 25 ppm to 0.195 ppm as illustrated in Table 1. The resulting matrix allows testing of eight concentrations of each active and 64 combinations of actives in the ratios (of actives).
Immediately after the microtiter plates are prepared, the optical density (OD) readings for each well is measured at 580 nm and the plates are then incubated at 37° C. for 24 hr. After the incubation period, the plates are gently agitated before OD580 values are collected. The OD580 values at T0 are subtracted from T24 values to determine the total amount of growth (or lack thereof) that occurs. These values are used to calculate the percent inhibition of growth caused by the presence of each biocide and each of the 64 combinations. A 90% inhibition of growth is used as a threshold for calculating synergy index (SI) values with the following equation: Synergy Index=MDBMAL/CDBMAL+MB/CB
where • CDBMAL: Concentration of DBMAL required to inhibit ≧90% of bacterial growth when used alone • CB: Concentration of biocide (B) required to inhibit ≧90% of bacterial growth when used alone. • MDBMAL: Concentration of DBMAL required to inhibit ≧90% of bacterial growth when used in combination with biocide (B). • MB: Concentration of biocide (B) required to inhibit ≧90% of bacterial growth when used in combination with DBMAL The SI values are interpreted as follows: • SI<1: Synergistic combination • SI=1: Additive combination • SI>1: Antagonistic combination
In the Examples below, the amounts of biocides in the solution are measured in mg per liter of solution (mg/l). Since solution densities are approximately 1.00, the mg/l measurement corresponds to weight and can be expressed as parts per million (ppm). Both units may therefore be used interchangeably in the Examples.

| Compound | I90 value (minimum concentration to result in at least 90% inhibition of growth) |
| --- | --- |
| CC1(C)C(=O)N(Cl)C(=O)N1Cl [DCDMH, dichlorodimethylhydantoin] | 0.78 mg/L |
| NC(=O)C(Br)(Br)C(N)=O [DBMAL, 2,2-dibromomalonamide] | 6.25 mg/L |
| OCl [HOCl, hypochlorous acid] | 0.78 mg/L |
| OBr [HOBr, hypobromous acid] | 12.5 mg/L |
| monochlorodimethylhydantoin [MCDMH] | 3.13 mg/L |
| CC1(C)C(=O)N(Br)C(=O)N1Br [DBDMH, dibromodimethylhydantoin] | 3.13 mg/L |

Reference: patent US9241484B2, “Compositions of dibromomalonamide and their use as biocides” (Dow Global Technologies LLC, priority 2011, dated 2016)
